Activity calls are given as the source filed them.
Assays:
[1] = tested on: HCT-116; test: Cytotoxicity against human HCT116 cells after 48 hrs by trypan blue dye exclusion assay; format: functional; conditions: HCT-116, 48 h
[2] = tested on: OVCAR-5; test: Cytotoxicity against human OVCAR5 cells after 48 hrs by trypan blue dye exclusion assay; format: functional; conditions: OVCAR-5, 48 h
[3] = tested on: MDA-MB-231; test: Cytotoxicity against human MDA-MB-231 cells after 48 hrs by trypan blue dye exclusion assay; format: functional; conditions: MDA-MB-231, 48 h
[4] = tested on: U-251; test: Cytotoxicity against human U251 cells after 48 hrs by trypan blue dye exclusion assay; format: functional; conditions: U-251, 48 h
[5] = tested on: EKVX; test: Cytotoxicity against human EKVX cells after 48 hrs by trypan blue dye exclusion assay; format: functional
[6] = tested on: RPMI-8226; test: Cytotoxicity against human RPMI8226 cells after 48 hrs by trypan blue dye exclusion assay; format: functional; conditions: RPMI-8226, 48 h
[7] = tested on: SK-MEL-2; test: Cytotoxicity against human SK-MEL-2 cells after 48 hrs by trypan blue dye exclusion assay; format: functional; conditions: SK-MEL-2, 48 h
[8] = tested on: PC-3; test: Cytotoxicity against human PC3 cells after 48 hrs by trypan blue dye exclusion assay; format: functional; conditions: PC-3, 48 h
[9] = tested on: M14; test: Cytotoxicity against human M14 cells after 48 hrs by trypan blue dye exclusion assay; format: functional; conditions: M14, 48 h
[10] = tested on: HCT-15; test: Cytotoxicity against human HCT15 cells after 48 hrs by trypan blue dye exclusion assay; format: functional; conditions: HCT-15, 48 h
[11] = tested on: LOX IMVI; test: Cytotoxicity against human LOXIMVI cells after 48 hrs by trypan blue dye exclusion assay; format: functional
[12] = tested on: UO-31; test: Cytotoxicity against human UO31 cells after 48 hrs by trypan blue dye exclusion assay; format: functional; conditions: UO-31, 48 h
[13] = tested on: SNB-75; test: Cytotoxicity against human SNB75 cells after 48 hrs by trypan blue dye exclusion assay; format: functional; conditions: SNB-75, 48 h
[14] = tested on: NCI-H322M; test: Cytotoxicity against human NCI-H322M cells after 48 hrs by trypan blue dye exclusion assay; format: functional
[15] = tested on: HOP-92; test: Cytotoxicity against human HOP92 cells after 48 hrs by trypan blue dye exclusion assay; format: functional; conditions: HOP-92, 48 h
[16] = tested on: SK-OV-3; test: Cytotoxicity against human SKOV3 cells after 48 hrs by trypan blue dye exclusion assay; format: functional; conditions: SK-OV-3, 48 h
[17] = tested on: MDA-MB-468; test: Cytotoxicity against human MDA-MB-468 cells after 48 hrs by trypan blue dye exclusion assay; format: functional; conditions: MDA-MB-468, 48 h
[18] = tested on: A498; test: Cytotoxicity against human A498 cells after 48 hrs by trypan blue dye exclusion assay; format: functional; conditions: A498, 48 h
[19] = tested on: NCI/ADR-RES; test: Cytotoxicity against human NCI/ADR-RES cells after 48 hrs by trypan blue dye exclusion assay; format: functional
[20] = tested on: RXF 393; test: Cytotoxicity against human RXF393 cells after 48 hrs by trypan blue dye exclusion assay; format: functional; conditions: RXF 393, 48 h
[21] = tested on: SNB-19; test: Cytotoxicity against human SNB19 cells after 48 hrs by trypan blue dye exclusion assay; format: functional; conditions: SNB-19, 48 h
[22] = tested on: BT-549; test: Cytotoxicity against human BT549 cells after 48 hrs by trypan blue dye exclusion assay; format: functional; conditions: BT-549, 48 h
[23] = tested on: UACC-257; test: Cytotoxicity against human UACC257 cells after 48 hrs by trypan blue dye exclusion assay; format: functional; conditions: UACC-257, 48 h
[24] = tested on: Paracentrotus lividus; test: Antimitotic activity against Paracentrotus lividus embryo assessed as cleavage alteration at 2 fold less effective threshold concentration after 2.5 to 6 hrs; format: functional, organism-based
[25] = tested on: K562; test: Cytotoxicity against human K562 cells after 48 hrs by trypan blue dye exclusion assay; format: functional; conditions: K562, 48 h
[26] = tested on: IGROV-1; test: Cytotoxicity against human IGROV1 cells after 48 hrs by trypan blue dye exclusion assay; format: functional; conditions: IGROV-1, 48 h
[27] = tested on: NCI-H226; test: Cytotoxicity against human NCI-H226 cells after 48 hrs by trypan blue dye exclusion assay; format: functional; conditions: NCI-H226, 48 h
[28] = tested on: HCC 2998; test: Cytotoxicity against human HCC2998 cells after 48 hrs by trypan blue dye exclusion assay; format: functional; conditions: HCC 2998, 48 h
[29] = tested on: NCI-H460; test: Cytotoxicity against human NCI-H460 cells after 48 hrs by trypan blue dye exclusion assay; format: functional; conditions: NCI-H460, 48 h
[30] = tested on: CCRF-CEM; test: Cytotoxicity against human CCRF-CEM cells after 48 hrs by trypan blue dye exclusion assay; format: functional
[31] = tested on: NCI-H23; test: Cytotoxicity against human NCI-H23 cells after 48 hrs by trypan blue dye exclusion assay; format: functional; conditions: NCI-H23, 48 h
[32] = tested on: UACC-62; test: Cytotoxicity against human UACC62 cells after 48 hrs by trypan blue dye exclusion assay; format: functional; conditions: UACC-62, 48 h

COc1ccc2c(c1)NC1=C(C(=O)OC1)C2c1cc(OC)c2c(c1)OCO2 (configuration not stated)
GI50 [1]: < 10 nM
GI50 [2]: 81.7 nM
GI50 [3]: 26.8 nM
GI50 [4]: 16.8 nM
GI50 [5]: < 10 nM
GI50 [6]: < 10 nM
GI50 [7]: 26.3 nM
GI50 [8]: 19.9 nM
GI50 [9]: 13.2 nM
GI50 [10]: 28.3 nM
GI50 [11]: < 10 nM
GI50 [12]: 30 nM
GI50 [13]: 42.6 nM
GI50 [14]: 58.3 nM
GI50 [15]: 86.2 nM
GI50 [16]: 14.6 nM
GI50 [17]: < 10 nM
GI50 [18]: < 10 nM
GI50 [19]: < 10 nM
GI50 [20]: < 10 nM
GI50 [21]: 49.9 nM
GI50 [22]: 46 nM
GI50 [23]: 51.2 nM
Activity [24]: inactive
GI50 [25]: < 10 nM
GI50 [26]: 25 nM
GI50 [27]: 10.1 nM
GI50 [28]: 23.3 nM
GI50 [29]: 22.5 nM
GI50 [30]: < 10 nM
GI50 [31]: 20.2 nM
GI50 [32]: < 10 nM
